{"source": "the supplement of paper PMC10307832", "experiment_in_all_cases": "relative viability (nuclei count vs DMSO), 5 days (fraction); higher = more cells survive", "key": {"[1]": {"test_system": "NCI-H520", "summary_of_the_method": "(§1)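 Lung cancer cell lines were seeded in 1536-well plates and dosed by pin tool the next day, with either a single drug or a fixed anchor-drug dose combined with five library-drug doses (not always all listed) spaced in √10 steps. Five days later, one step fixed the cells and stained their nuclei (final 0.05% Triton X-100, 1% formaldehyde, 1 ug/ml Hoechst), and nuclei were counted on 4× images. Relative viability is the nuclei count in treated wells divided by the count in vehicle wells, and each value is the median of duplicate plates.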"}, "[2]": {"test_system": "H3255", "summary_of_the_method": "as §1"}, "[3]": {"test_system": "HCC-15", "summary_of_the_method": "as §1"}, "[4]": {"test_system": "LC-2-ad", "summary_of_the_method": "as §1"}, "[5]": {"test_system": "LU99A", "summary_of_the_method": "as §1"}, "[6]": {"test_system": "NCI-H3122", "summary_of_the_method": "as §1"}, "[7]": {"test_system": "NCI-H1734", "summary_of_the_method": "as §1"}, "[8]": {"test_system": "HARA", "summary_of_the_method": "as §1"}, "[9]": {"test_system": "NCI-H1993", "summary_of_the_method": "as §1"}, "[10]": {"test_system": "NCI-H1666", "summary_of_the_method": "as §1"}, "[11]": {"test_system": "PC-3 [JPC-3]", "summary_of_the_method": "as §1"}, "[12]": {"test_system": "NCI-H647", "summary_of_the_method": "as §1"}, "[13]": {"test_system": "HCC-366", "summary_of_the_method": "as §1"}, "[14]": {"test_system": "SK-LU-1", "summary_of_the_method": "as §1"}, "[15]": {"test_system": "NCI-H2228", "summary_of_the_method": "as §1"}, "[16]": {"test_system": "NCI-H1975", "summary_of_the_method": "as §1"}, "[17]": {"test_system": "NCI-H1944", "summary_of_the_method": "as §1"}, "[18]": {"test_system": "NCI-H661", "summary_of_the_method": "as §1"}, "[19]": {"test_system": "NCI-H838", "summary_of_the_method": "as §1"}, "[20]": {"test_system": "CAL-12T", "summary_of_the_method": "as §1"}, "[21]": {"test_system": "NCI-H1395", "summary_of_the_method": "as §1"}, "[22]": {"test_system": "PC-14", "summary_of_the_method": "as §1"}, "[23]": {"test_system": "COR-L 105", "summary_of_the_method": "as §1"}}}
{"compound": "Cc1cnc(-c2cnc(NCCNc3ccc(C#N)cn3)nc2-c2ccc(Cl)cc2Cl)[nH]1", "note": "+ COc1cc2c(Oc3ccc(NC(=O)C4(C(=O)Nc5ccc(F)cc5)CC4)cc3F)ccnc2cc1OCCCN1CCOCC1 [Foretinib] (partner 0.25 µM)", "values": [{"measurement": "relative viability", "setting": "[1]; first compound 0.08 µM", "value": 0.71}, {"measurement": "relative viability", "setting": "[1]; first compound 0.253 µM", "value": 0.593}, {"measurement": "relative viability", "setting": "[1]; first compound 0.8 µM", "value": 0.918}, {"measurement": "relative viability", "setting": "[1]; first compound 2.53 µM", "value": 1.04}, {"measurement": "relative viability", "setting": "[2]; first compound 0.08 µM", "value": 0.956}, {"measurement": "relative viability", "setting": "[2]; first compound 0.253 µM", "value": 0.696}, {"measurement": "relative viability", "setting": "[2]; first compound 0.8 µM", "value": 0.988}, {"measurement": "relative viability", "setting": "[2]; first compound 2.53 µM", "value": 0.841}, {"measurement": "relative viability", "setting": "[3]; first compound 0.08 µM", "value": 1.12}, {"measurement": "relative viability", "setting": "[3]; first compound 0.253 µM", "value": 0.895}, {"measurement": "relative viability", "setting": "[3]; first compound 0.8 µM", "value": 1.02}, {"measurement": "relative viability", "setting": "[3]; first compound 2.53 µM", "value": 0.941}, {"measurement": "relative viability", "setting": "[4]; first compound 0.08 µM", "value": 0.996}, {"measurement": "relative viability", "setting": "[4]; first compound 0.253 µM", "value": 0.711}, {"measurement": "relative viability", "setting": "[4]; first compound 2.53 µM", "value": 1.03}, {"measurement": "relative viability", "setting": "[5]; first compound 0.08 µM", "value": 0.908}, {"measurement": "relative viability", "setting": "[5]; first compound 0.253 µM", "value": 0.701}, {"measurement": "relative viability", "setting": "[5]; first compound 0.8 µM", "value": 0.83}, {"measurement": "relative viability", "setting": "[5]; first compound 2.53 µM", "value": 0.765}, {"measurement": "relative viability", "setting": "[6]; first compound 0.08 µM", "value": 0.943}, {"measurement": "relative viability", "setting": "[6]; first compound 0.8 µM", "value": 0.935}, {"measurement": "relative viability", "setting": "[6]; first compound 2.53 µM", "value": 0.914}, {"measurement": "relative viability", "setting": "[7]; first compound 0.08 µM", "value": 0.926}, {"measurement": "relative viability", "setting": "[7]; first compound 0.253 µM", "value": 0.762}, {"measurement": "relative viability", "setting": "[7]; first compound 0.8 µM", "value": 0.834}, {"measurement": "relative viability", "setting": "[7]; first compound 2.53 µM", "value": 0.83}, {"measurement": "relative viability", "setting": "[8]; first compound 0.08 µM", "value": 1}, {"measurement": "relative viability", "setting": "[8]; first compound 0.253 µM", "value": 0.773}, {"measurement": "relative viability", "setting": "[8]; first compound 0.8 µM", "value": 0.818}, {"measurement": "relative viability", "setting": "[8]; first compound 2.53 µM", "value": 0.877}, {"measurement": "relative viability", "setting": "[9]; first compound 0.08 µM", "value": 0.902}, {"measurement": "relative viability", "setting": "[9]; first compound 0.253 µM", "value": 0.652}, {"measurement": "relative viability", "setting": "[9]; first compound 0.8 µM", "value": 0.754}, {"measurement": "relative viability", "setting": "[9]; first compound 2.53 µM", "value": 0.889}, {"measurement": "relative viability", "setting": "[10]; first compound 0.08 µM", "value": 0.934}, {"measurement": "relative viability", "setting": "[10]; first compound 0.253 µM", "value": 0.906}, {"measurement": "relative viability", "setting": "[10]; first compound 0.8 µM", "value": 0.995}, {"measurement": "relative viability", "setting": "[10]; first compound 2.53 µM", "value": 0.924}, {"measurement": "relative viability", "setting": "[11]; first compound 0.08 µM", "value": 0.978}, {"measurement": "relative viability", "setting": "[11]; first compound 0.253 µM", "value": 0.926}, {"measurement": "relative viability", "setting": "[11]; first compound 0.8 µM", "value": 1.03}, {"measurement": "relative viability", "setting": "[11]; first compound 2.53 µM", "value": 1.03}, {"measurement": "relative viability", "setting": "[12]; first compound 0.08 µM", "value": 1.35}, {"measurement": "relative viability", "setting": "[12]; first compound 0.253 µM", "value": 1.03}, {"measurement": "relative viability", "setting": "[12]; first compound 0.8 µM", "value": 0.938}, {"measurement": "relative viability", "setting": "[12]; first compound 2.53 µM", "value": 1.15}, {"measurement": "relative viability", "setting": "[13]; first compound 0.08 µM", "value": 1.01}, {"measurement": "relative viability", "setting": "[13]; first compound 0.253 µM", "value": 0.964}, {"measurement": "relative viability", "setting": "[13]; first compound 0.8 µM", "value": 0.892}, {"measurement": "relative viability", "setting": "[13]; first compound 2.53 µM", "value": 0.922}, {"measurement": "relative viability", "setting": "[14]; first compound 0.08 µM", "value": 0.865}, {"measurement": "relative viability", "setting": "[14]; first compound 0.253 µM", "value": 0.833}, {"measurement": "relative viability", "setting": "[14]; first compound 0.8 µM", "value": 0.983}, {"measurement": "relative viability", "setting": "[14]; first compound 2.53 µM", "value": 1.03}, {"measurement": "relative viability", "setting": "[15]; first compound 0.08 µM", "value": 0.954}, {"measurement": "relative viability", "setting": "[15]; first compound 0.253 µM", "value": 0.761}, {"measurement": "relative viability", "setting": "[15]; first compound 0.8 µM", "value": 0.898}, {"measurement": "relative viability", "setting": "[15]; first compound 2.53 µM", "value": 0.589}, {"measurement": "relative viability", "setting": "[16]; first compound 0.08 µM", "value": 0.928}, {"measurement": "relative viability", "setting": "[16]; first compound 0.253 µM", "value": 0.911}, {"measurement": "relative viability", "setting": "[16]; first compound 0.8 µM", "value": 0.771}, {"measurement": "relative viability", "setting": "[16]; first compound 2.53 µM", "value": 0.573}, {"measurement": "relative viability", "setting": "[17]; first compound 0.08 µM", "value": 0.885}, {"measurement": "relative viability", "setting": "[17]; first compound 0.8 µM", "value": 0.902}, {"measurement": "relative viability", "setting": "[17]; first compound 2.53 µM", "value": 0.91}, {"measurement": "relative viability", "setting": "[18]; first compound 0.08 µM", "value": 1.05}, {"measurement": "relative viability", "setting": "[18]; first compound 0.253 µM", "value": 0.99}, {"measurement": "relative viability", "setting": "[18]; first compound 0.8 µM", "value": 1.01}, {"measurement": "relative viability", "setting": "[18]; first compound 2.53 µM", "value": 0.894}, {"measurement": "relative viability", "setting": "[19]; first compound 0.08 µM", "value": 1.04}, {"measurement": "relative viability", "setting": "[19]; first compound 0.253 µM", "value": 1.02}, {"measurement": "relative viability", "setting": "[19]; first compound 0.8 µM", "value": 1.15}, {"measurement": "relative viability", "setting": "[19]; first compound 2.53 µM", "value": 1.21}, {"measurement": "relative viability", "setting": "[20]; first compound 0.08 µM", "value": 1.07}, {"measurement": "relative viability", "setting": "[20]; first compound 0.253 µM", "value": 0.946}, {"measurement": "relative viability", "setting": "[20]; first compound 0.8 µM", "value": 1.15}, {"measurement": "relative viability", "setting": "[20]; first compound 2.53 µM", "value": 0.979}, {"measurement": "relative viability", "setting": "[21]; first compound 0.08 µM", "value": 1.03}, {"measurement": "relative viability", "setting": "[21]; first compound 0.253 µM", "value": 0.953}, {"measurement": "relative viability", "setting": "[21]; first compound 0.8 µM", "value": 1.02}, {"measurement": "relative viability", "setting": "[21]; first compound 2.53 µM", "value": 0.956}, {"measurement": "relative viability", "setting": "[22]; first compound 0.08 µM", "value": 0.978}, {"measurement": "relative viability", "setting": "[22]; first compound 0.253 µM", "value": 0.852}, {"measurement": "relative viability", "setting": "[22]; first compound 0.8 µM", "value": 0.941}, {"measurement": "relative viability", "setting": "[22]; first compound 2.53 µM", "value": 0.894}, {"measurement": "relative viability", "setting": "[23]; first compound 0.08 µM", "value": 0.906}, {"measurement": "relative viability", "setting": "[23]; first compound 0.253 µM", "value": 1.03}, {"measurement": "relative viability", "setting": "[23]; first compound 0.8 µM", "value": 0.943}, {"measurement": "relative viability", "setting": "[23]; first compound 2.53 µM", "value": 0.868}]}
